Assay: xn = mol fraction of the nth substance listed
Conditions: 96.7 kPa, Liquid; for viscosity: Capillary tube (Ostwald / Ubbelohde) method; for mass density: Vibrating tube method

CCCCCCn1cc[n+](C)c1.[Cl-] [1-hexyl-3-methylimidazolium chloride] + CC(=O)N(C)C
Conditions	mass density [kg/m3]	viscosity [mPa·s]
303.15 K, x1 = 0.155	967.16	3.756
303.15 K, x1 = 0.301	989.75	14.88
303.15 K, x1 = 0.392	999.94	35.44
303.15 K, x1 = 0.503	1009.66	92.11
303.15 K, x1 = 0.63	1018.78	295.88
303.15 K, x1 = 0.794	1027.67	917.88
303.15 K, x1 = 0.887	1032.11	2891.3
303.15 K, x1 = 1	1036.07	5718.5
308.15 K, x1 = 0.155	962.92	3.352
308.15 K, x1 = 0.301	986.11	12.57
308.15 K, x1 = 0.392	996.46	28.6
308.15 K, x1 = 0.503	1006.34	70.17
308.15 K, x1 = 0.63	1015.69	212.96
308.15 K, x1 = 0.794	1024.64	624.84
308.15 K, x1 = 0.887	1029.11	1853.1
308.15 K, x1 = 1	1033.22	3430.8
313.15 K, x1 = 0.155	958.82	3.026
313.15 K, x1 = 0.301	982.47	10.74
313.15 K, x1 = 0.392	992.99	23.52
313.15 K, x1 = 0.503	1003.03	55.61
313.15 K, x1 = 0.63	1012.58	158.14
313.15 K, x1 = 0.794	1021.62	440.38
313.15 K, x1 = 0.887	1026.14	1212.9
313.15 K, x1 = 1	1030.38	2146.1
318.15 K, x1 = 0.155	954.87	2.739
318.15 K, x1 = 0.301	978.83	9.242
318.15 K, x1 = 0.392	989.54	19.54
318.15 K, x1 = 0.503	999.74	44.26
318.15 K, x1 = 0.63	1009.45	119.42
318.15 K, x1 = 0.794	1018.61	313.65
318.15 K, x1 = 0.887	1023.19	814.85
318.15 K, x1 = 1	1027.56	1390.4
323.15 K, x1 = 0.155	951	2.493
323.15 K, x1 = 0.301	975.21	8.018
323.15 K, x1 = 0.392	986.09	16.46
323.15 K, x1 = 0.503	996.46	35.84
323.15 K, x1 = 0.63	1006.33	91.95
323.15 K, x1 = 0.794	1015.58	229.39
323.15 K, x1 = 0.887	1020.2	563.41
323.15 K, x1 = 1	1024.75	928.1
328.15 K, x1 = 0.155	947.22	2.28
328.15 K, x1 = 0.301	971.59	7.038
328.15 K, x1 = 0.392	982.65	14
328.15 K, x1 = 0.503	993.19	29.41
328.15 K, x1 = 0.63	1003.22	71.92
328.15 K, x1 = 0.794	1012.63	171.63
328.15 K, x1 = 0.887	1017.33	400.32
328.15 K, x1 = 1	1021.92	638.79
333.15 K, x1 = 0.155	943.5	2.091
333.15 K, x1 = 0.301	967.98	6.213
333.15 K, x1 = 0.392	979.22	12.02
333.15 K, x1 = 0.503	989.93	24.45
333.15 K, x1 = 0.63	1000.11	57.41
333.15 K, x1 = 0.794	1009.73	130.32
333.15 K, x1 = 0.887	1014.53	291.17
333.15 K, x1 = 1	1019.13	453.59
338.15 K, x1 = 0.155	939.77	1.931
338.15 K, x1 = 0.301	964.37	5.522
338.15 K, x1 = 0.392	975.8	10.41
338.15 K, x1 = 0.503	986.68	20.82
338.15 K, x1 = 0.63	997.03	46.28
338.15 K, x1 = 0.794	1006.85	101.08
338.15 K, x1 = 0.887	1011.76	216.49
338.15 K, x1 = 1	1016.38	327.52
343.15 K, x1 = 0.155	935.94	1.786
343.15 K, x1 = 0.301	960.77	4.918
343.15 K, x1 = 0.392	972.39	9.14
343.15 K, x1 = 0.503	983.44	17.42
343.15 K, x1 = 0.63	993.95	37.9
343.15 K, x1 = 0.794	1003.99	79.83
343.15 K, x1 = 0.887	1009.01	163.62
343.15 K, x1 = 1	1013.65	243.04
348.15 K, x1 = 0.155	932.05	1.658
348.15 K, x1 = 0.301	957.18	4.443
348.15 K, x1 = 0.392	968.98	8.018
348.15 K, x1 = 0.503	980.22	14.93
348.15 K, x1 = 0.63	990.89	31.38
348.15 K, x1 = 0.794	1001.15	63.75
348.15 K, x1 = 0.887	1006.28	125.96
348.15 K, x1 = 1	1010.91	183.45
353.15 K, x1 = 0.155	928.09	1.542
353.15 K, x1 = 0.301	953.59	4.015
353.15 K, x1 = 0.392	965.58	7.115
353.15 K, x1 = 0.503	977	12.86
353.15 K, x1 = 0.63	987.84	26.46
353.15 K, x1 = 0.794	998.33	51.4
353.15 K, x1 = 0.887	1003.57	98.54
353.15 K, x1 = 1	1008.18	140.06

CCCCCCn1cc[n+](C)c1.[Cl-] [1-hexyl-3-methylimidazolium chloride] + C[S+](C)[O-]
Conditions	mass density [kg/m3]	viscosity [mPa·s]
303.15 K, x1 = 0.141	1078.5	6.523
303.15 K, x1 = 0.278	1068.64	23.07
303.15 K, x1 = 0.366	1063.06	54.37
303.15 K, x1 = 0.472	1057.13	134.28
303.15 K, x1 = 0.606	1050.34	343.91
303.15 K, x1 = 0.773	1043.22	806.64
303.15 K, x1 = 0.878	1039.66	2111.1
303.15 K, x1 = 1	1036.07	5718.5
308.15 K, x1 = 0.141	1074.26	5.691
308.15 K, x1 = 0.278	1064.88	18.67
308.15 K, x1 = 0.366	1059.5	41.74
308.15 K, x1 = 0.472	1053.74	100.12
308.15 K, x1 = 0.606	1047.15	242.91
308.15 K, x1 = 0.773	1040.19	554.65
308.15 K, x1 = 0.878	1036.71	1348.9
308.15 K, x1 = 1	1033.22	3430.8
313.15 K, x1 = 0.141	1070.08	4.951
313.15 K, x1 = 0.278	1061.15	15.46
313.15 K, x1 = 0.366	1055.94	33.33
313.15 K, x1 = 0.472	1050.36	76.29
313.15 K, x1 = 0.606	1043.96	176.38
313.15 K, x1 = 0.773	1037.17	384.99
313.15 K, x1 = 0.878	1033.77	895.04
313.15 K, x1 = 1	1030.38	2146.1
318.15 K, x1 = 0.141	1065.87	4.385
318.15 K, x1 = 0.278	1057.41	12.95
318.15 K, x1 = 0.366	1052.4	26.72
318.15 K, x1 = 0.472	1046.99	58.57
318.15 K, x1 = 0.606	1040.76	130.64
318.15 K, x1 = 0.773	1034.12	274.48
318.15 K, x1 = 0.878	1030.8	607.51
318.15 K, x1 = 1	1027.56	1390.4
323.15 K, x1 = 0.141	1061.67	3.892
323.15 K, x1 = 0.278	1053.68	10.99
323.15 K, x1 = 0.366	1048.87	21.9
323.15 K, x1 = 0.472	1043.65	46.32
323.15 K, x1 = 0.606	1037.58	98.7
323.15 K, x1 = 0.773	1031.12	201.06
323.15 K, x1 = 0.878	1027.89	425.84
323.15 K, x1 = 1	1024.75	928.1
328.15 K, x1 = 0.141	1057.48	3.493
328.15 K, x1 = 0.278	1049.95	9.439
328.15 K, x1 = 0.366	1045.35	18.22
328.15 K, x1 = 0.472	1040.31	37.12
328.15 K, x1 = 0.606	1034.41	76.27
328.15 K, x1 = 0.773	1028.15	150.51
328.15 K, x1 = 0.878	1025.02	306.13
328.15 K, x1 = 1	1021.92	638.79
333.15 K, x1 = 0.141	1053.31	3.154
333.15 K, x1 = 0.278	1046.23	8.18
333.15 K, x1 = 0.366	1041.84	15.34
333.15 K, x1 = 0.472	1036.99	30.3
333.15 K, x1 = 0.606	1031.26	60.05
333.15 K, x1 = 0.773	1025.19	114.9
333.15 K, x1 = 0.878	1022.16	227.29
333.15 K, x1 = 1	1019.13	453.59
338.15 K, x1 = 0.141	1049.14	2.85
338.15 K, x1 = 0.278	1042.51	7.175
338.15 K, x1 = 0.366	1038.35	13.14
338.15 K, x1 = 0.472	1033.67	25.52
338.15 K, x1 = 0.606	1028.12	48.07
338.15 K, x1 = 0.773	1022.24	89.02
338.15 K, x1 = 0.878	1019.29	169.96
338.15 K, x1 = 1	1016.38	327.52
343.15 K, x1 = 0.141	1045.01	2.594
343.15 K, x1 = 0.278	1038.81	6.291
343.15 K, x1 = 0.366	1034.87	11.28
343.15 K, x1 = 0.472	1030.39	20.88
343.15 K, x1 = 0.606	1025	39.06
343.15 K, x1 = 0.773	1019.29	70.28
343.15 K, x1 = 0.878	1016.44	129.41
343.15 K, x1 = 1	1013.65	243.04
348.15 K, x1 = 0.141	1040.88	2.378
348.15 K, x1 = 0.278	1035.11	5.597
348.15 K, x1 = 0.366	1031.39	9.738
348.15 K, x1 = 0.472	1027.11	17.65
348.15 K, x1 = 0.606	1021.88	32.05
348.15 K, x1 = 0.773	1016.35	56.52
348.15 K, x1 = 0.878	1013.59	100.3
348.15 K, x1 = 1	1010.91	183.45
353.15 K, x1 = 0.141	1036.68	2.184
353.15 K, x1 = 0.278	1031.43	4.998
353.15 K, x1 = 0.366	1027.93	8.538
353.15 K, x1 = 0.472	1023.84	15.07
353.15 K, x1 = 0.606	1018.78	26.7
353.15 K, x1 = 0.773	1013.43	45.71
353.15 K, x1 = 0.878	1010.75	81.75
353.15 K, x1 = 1	1008.18	140.06

Reference: the NIST ThermoML archive (doi:10.1016/j.jct.2017.07.016)
